Measured values published in patent US11667621B2, “Antiestrogen compounds” (STEVENS INSTITUTE OF TECHNOLOGY, priority 2018, dated 2023).
Changes are numbered by the printed parent chain.

How the values were obtained:
[1] = target: T1, full length human estrogen receptor a (Homo sapiens, UniProt P03372); assay: Competitive radiometric binding assay (RBA), tritiated estradiol tracer; details: relative to estradiol = 100; average SD of 2-3 determinations
T1 construct: purified, full-length human estrogen receptor a from Invitrogen; purchased Invitrogen
T1 sequence (P03372 1-595): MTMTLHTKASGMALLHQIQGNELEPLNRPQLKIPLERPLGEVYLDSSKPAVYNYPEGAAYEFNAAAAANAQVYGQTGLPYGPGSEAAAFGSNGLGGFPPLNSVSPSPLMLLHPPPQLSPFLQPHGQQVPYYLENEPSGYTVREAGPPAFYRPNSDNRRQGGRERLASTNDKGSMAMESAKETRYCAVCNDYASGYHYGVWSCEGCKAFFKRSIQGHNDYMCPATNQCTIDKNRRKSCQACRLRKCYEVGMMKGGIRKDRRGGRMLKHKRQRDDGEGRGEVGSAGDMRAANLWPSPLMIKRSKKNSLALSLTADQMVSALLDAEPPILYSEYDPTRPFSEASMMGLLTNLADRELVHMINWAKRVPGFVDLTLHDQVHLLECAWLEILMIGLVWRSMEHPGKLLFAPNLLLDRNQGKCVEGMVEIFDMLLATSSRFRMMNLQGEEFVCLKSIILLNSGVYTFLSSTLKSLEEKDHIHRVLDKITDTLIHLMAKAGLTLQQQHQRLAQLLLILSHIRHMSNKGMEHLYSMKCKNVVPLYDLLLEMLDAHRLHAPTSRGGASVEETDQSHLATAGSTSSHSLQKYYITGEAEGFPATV
Experimental: Tritiated estradiol was obtained from Perkin Elmer and purified, full-length human estrogen receptor a from Invitrogen.
Competitive radiometric binding assays (RBA) were performed on 96-well microtiter filter plates (Millipore), using full length human estrogen receptor a, with tritiated estradiol as tracer, as previously described (Carlson K E, Choi I, Gee A, Katzenellenbogen B S, Katzenellenbogen J A. Altered ligand binding properties and enhanced stability of a constitutively active estrogen receptor: evidence that an open pocket conformation is required for ligand interaction. Biochemistry 1997, 36(48), 14897-14905). After incubation on ice for 18-24 h, ERα-bound tracer was absorbed onto hydroxyapatite (BioRad), washed with buffer, and measured by scintillation counting. RBA values are the average SD of 2-3 determinations.

[2] = Cell proliferation assay (WST-1), 6-day exposure; type: cell-based; details: 144 h, read-out: Antiproliferation IC50
Experimental: Cell proliferation assay: WST-1 assay (Roche, Basel, Switzerland) was used to quantify cell viability after a 6-day exposure to compounds, as described in Gong et al. Mol. Cell. Endocrinol. 2016, 437, 190-200. Absorbance was measured at 450 nm using a VICTOR X5 PerkinElmer 2030 Multilabel Plate Reader, and cell proliferation values represent signal from compound-treated samples relative to vehicle-treated controls. All assays were performed in triplicate, and the values shown are the average SD of 2-3 independent experiments.

HA-ERα D538G = target: T2, HA-ERα D538G (Homo sapiens, UniProt P03372, D538G); assay: Luciferase assay, overexpressed ER (3×-ERE-TATA-Luciferase reporter); type: cell-based; details: for inhibition at 1 µM: compound concentration 1 μM, 24 hours
T2 construct: HA; expressed in transfected cells
T2 sequence (P03372 1-595 D538G): T1 sequence (P03372 1-595) with D538G
Experimental: (§1) Luciferase assays were performed to determine the efficacy of the example compounds at inhibiting ER or its mutants' ability to activate transcription of genes.
(§2) Cells were plated at a density of 0.15×10^6 per well of 24 well plates one day prior to transfection. Cells were transfected with 125 ng (per well) of HA-ERα wild type or mutants, 315 ng (per well) of 3×-ERE-TATA-Luciferase reporter and 50 ng (per well) of pRL-TK Renilla Luciferase plasmid, using Xtremegene (Roche). The cells were treated with the various compounds or Fulvestrant at the indicated doses a day after transfection for 24 hours and luciferase activities were determined using the Dual-Luciferase® Reporter Assay System (Promega) according to manufacturer's instructions. Luciferase bioluminescence measurements were performed with the Veritas™ Microplate Luminometer (Promega). All experiments were conducted in triplicate and the Firefly luciferase activity was normalized with the Renilla luciferase activity of each sample.

HA-ERα L536R = target: T3, HA-ERα L536R (Homo sapiens, UniProt P03372, L536R); assay: as above; type: cell-based; details: for inhibition at 1 µM: compound concentration 1 μM, 24 hours
T3 construct: HA; expressed in transfected cells
T3 sequence (P03372 1-595 L536R): T1 sequence (P03372 1-595) with L536R
Experimental: as §1, §2

HA-ERα Y537S = target: T4, HA-ERα Y537S (Homo sapiens, UniProt P03372, Y537S); assay: as above; type: cell-based; details: for inhibition at 1 µM: compound concentration 1 μM, 24 hours
T4 construct: HA; expressed in transfected cells
T4 sequence (P03372 1-595 Y537S): T1 sequence (P03372 1-595) with Y537S
Experimental: as §1, §2

HA-ERα wild type = target: T5, HA-ERα wild type (Homo sapiens, UniProt P03372); assay: as above; type: cell-based; details: for inhibition at 1 µM: compound concentration 1 μM, 24 hours, read-out: Overexpressed ER (% Inhibition) WT
T5 construct: HA; expressed in transfected cells
T5 sequence (P03372 1-595): T1 sequence (P03372 1-595)
Experimental: as §1, §2

D538G cl. 65 = assay: Cell proliferation assay (Resazurin); type: cell-based
Experimental: (§3) Cell proliferation assays were performed to determine the efficacy of the compounds at inhibiting ER or its mutants' ability at promoting cell proliferation.
(§4) Cells were plated at 1500 cells/well into 96-well culture plates in regular media, treated with the indicated doses of the compounds or Fulvestrant the next day and incubated in a humidified incubator with 5% CO2 at 37° C. They were assayed for cell proliferation at Day 0, 3, 5 and 7 using the Resazurin reagent (R&D Systems), which upon addition, culture plates were incubated at 37° C. incubator for 4 hours before their fluorescence were read at 560 nm excitation and 590 nm emission wavelengths with a microtiter plate reader (Molecular Devices).

MCF7 = assay: Cell proliferation assay (Resazurin); type: cell-based; details: Homo sapiens
Experimental: as §3, §4

Y537S cl. 24 = assay: Cell proliferation assay (Resazurin); type: cell-based
Experimental: as §3, §4

| SMILES | RBA (estradiol = 100) [1] | IC50 [2] [nM] | inhibition at 1 µM (HA-ERα D538G) [%] | inhibition at 1 µM (HA-ERα L536R) [%] | inhibition at 1 µM (HA-ERα Y537S) [%] | inhibition at 1 µM (HA-ERα wild type) [%] | also measured |
| --- | --- | --- | --- | --- | --- | --- | --- |
| O=C(NCCCOc1ccc(C(=C2C3CC4CC(C3)CC2C4)c2ccc(O)cc2)cc1)C12CC3CC(CC(C3)C1)C2 [Example 5, N-(3-(4-(Adamantan-2-ylidene(4-hydroxyphenyl)methyl)phenoxy)propyl)-adamantane-1-carboxamide] | 26 ± 6 | 9 | – | – | – | – | – |
| O=C(NCCOc1ccc(C(=C2C3CC4CC(C3)CC2C4)c2ccc(O)cc2)cc1)C12CC3CC(CC(C3)C1)C2 [Example 4, N-(2-(4-(Adamantan-2-ylidene(4-hydroxyphenyl)methyl)phenoxy)ethyl)-adamantane-1-carboxamide] | 21 ± 6 | 17 | – | – | – | – | – |
| CC(C)(C)OC(=O)N[C@@H](Cc1ccccc1)C(=O)NCCCCOc1ccc(C(=C2C3CC4CC(C3)CC2C4)c2ccc(O)cc2)cc1 [Example 3, (S)-tert-Butyl(1-((4-(4-(adamantan-2-ylidene(4-hydroxyphenyl)methyl)-phenoxy)butyl)amino)-1-oxo-3-phenylpropan-2-yl)carbamate] | 14 ± 4 | 7 | – | – | – | – | – |
| O=C(NCCCCOc1ccc(C(=C2CCCCC2)c2ccc(O)cc2)cc1)[C@H]1CC[C@H](C(F)(F)F)CC1 [Example 25, (trans)-N-(4-(4-(Cyclohexylidene(4-hydroxyphenyl)methyl)phenoxy)butyl)-4-(trifluoromethyl)cyclohexanecarboxamide] | – | – | 42 | 36 | -39 | 77 | – |
| O=C1CCC(N2C(=O)c3cccc(OCCOCCOc4ccc(C(=C5C6CC7CC(C6)CC5C7)c5ccc(O)cc5)cc4)c3C2=O)C(=O)N1 (stereo not shown) [Example 19, 4-(2-(2-(4-(Adamantan-2-ylidene(4-hydroxyphenyl)methyl)phenoxy)-ethoxy)ethoxy)-2-(2,6-dioxopiperidin-3-yl)isoindoline-1,3-dione] | – | – | 90 | 83 | -136 | 82 | – |
| O=C(NCCCCOc1ccc(Oc2c(-c3ccc(O)cc3)sc3cc(O)ccc23)cc1)C1CC(F)(F)C1 [Example 29, 3,3-Difluoro-N-(4-(4-((6-hydroxy-2-(4-hydroxyphenyl)benzo[b]thiophen-3-yl)oxy)phenoxy)butyl)cyclobutanecarboxamide] | – | – | 73 | 90 | 1 | 39 | – |
| CC(C)C[C@H](NC(=O)OC(C)(C)C)C(=O)NCCCCOc1ccc(C(=C2C3CC4CC(C3)CC2C4)c2ccc(O)cc2)cc1 [Example 2, (S)-tert-Butyl (1-((4-(4-(adamantan-2-ylidene(4-hydroxyphenyl)methyl)-phenoxy)butyl)amino)-4-methyl-1-oxopentan-2-yl)carbamate] | 14 ± 1 | 36 | – | – | – | – | – |
| O=C(NCCCCOc1ccc(Oc2c(-c3ccc(O)cc3)sc3cc(O)ccc23)cc1)[C@H]1CC[C@H](C(F)(F)F)CC1 [Example 17, (trans)-N-(4-(4-((6-Hydroxy-2-(4-hydroxyphenyl)benzo[b]thiophen-3-yl)oxy)phenoxy)butyl)-4-(trifluoromethyl)cyclohexanecarboxamide] | – | – | 95 | 94 | 95 | 96 | IC90 (HA-ERα D538G; luciferase assay, Table 4): 175 nM; IC90 (HA-ERα L536R; luciferase assay, Table 4): 124 nM; IC90 (HA-ERα Y537S; luciferase assay, Table 4): 464 nM; IC90 (HA-ERα wild type; luciferase assay, Table 4): 19 nM; IC90 (D538G cl. 65): 315 nM; IC90 (MCF7): 22.1 nM; IC90 (Y537S cl. 24): 304 nM |
